The results in this text go back to paper PMC5693244 (European journal of medicinal chemistry, 2017).

For one data set, the system named is human neutrophils. Kind of data set: Ca2+ mobilization in human neutrophils. It counts as cell-based. (In general: Calcium flux is commonly read through the fluorescence of an indicator in the cells.)
The nature of data set [1]: Stability assays in rat liver microsomes. It counts as in vitro ADME. The note with it: pH 7.4, Metabolic stability (% remaining), percent of parent compound remaining after 30-min incubation. For orientation: Liver microsomes are vesicles of endoplasmic reticulum, rich in cytochrome P450 enzymes.
Data set [2] has as its system rat primary microglial cells. Kind of data set: Lactate dehydrogenase. Format: cell-based.
The test system of data set [3] is rat primary microglial cells. Kind of data set: MTT cell viability test in rat primary microglial cell cultures. It counts as cell-based. On the technique in general: Formazan colour is commonly taken as a measure of viable cells.
In data set [4] the test system is NO production in rat microglial cell cultures. Kind of data set: NO release assay. It counts as cell-based.
The test system of data set [5] is IL-1β production in rat microglial cell cultures. Kind of data set: IL-1β ELISA in rat microglial cell cultures. Format: cell-based.
The test system of data set [6] is TNF-α production in rat microglial cell cultures. Kind of data set: TNF-α ELISA in rat microglial cell cultures. Format: cell-based.
The nature of data set [7]: Bidirectional transport across hCMEC/D3 cell monolayer. It counts as in vitro ADME, human. Conditions: human.
For another data set, the system named is hCMEC/D3 cells. Described as above. It counts as in vitro ADME, human. The note with it: 100 μM, 2 h.
Where [8] appears, read: basal conditions, 0.5–10 μM, 24 h.
The mark [9] stands for this setting: LPS-stimulated, pre-treatment with FPR2 antagonist WRW4.
Where [10] appears, read: basal conditions, agonists 0.5 μM-10 μM.

The amount remaining is the share of the starting amount still present when the sample was taken. Usually efflux ratio stands for the permeability from basolateral to apical divided by that in the opposite direction, in the common usage. Turning to `N#Cc1ccc(C[C@H](NC(=O)Nc2ccc(F)cc2)C(=O)NCC2(c3ccc(F)c(Cl)c3)CC2)cc1` [(S)-17, (S)-3-(4-Cyanophenyl)-N-[[1-(3-chloro-4-fluorophenyl)cyclopropyl]methyl]-2-[3-(4-fluorophenyl)ureido]propanamide], the “EC50, μM Neutrophils” value in the data set on human neutrophils is reported as “submicromolar range”. Further, the share remaining at 0.5 h, 10 μM in data set [1] is above 20%. Also, the “Effect on LPS-induced cell death (LDH release)” value in data set [2] (LPS-stimulated, pre-treatment 1 μM and 5 μM) is “effectively blocked LPS-induced cell death processes”. Moreover, in [2] (basal conditions, 50 μM), the “Effect on LDH release (cell death)” value was “significant increase in death processes”. Besides, in data set [2] (setting [8]), the “Effect on LDH release” value is listed as “None of the compounds induced significant effects”. The “Effect on metabolic activity (MTT) in LPS-stimulated cells” value in [3] (LPS-stimulated) is reported as “no effect was observed on metabolic activity”. Besides, the “Effect on conversion of MTT dye” value in [3] (basal conditions, 50 μM) was “decreased the conversion of MTT dye”. The “Effect on metabolic activity (MTT)” value in [3] (setting [8]) is reported as “None of the compounds induced significant effects”. Also, in data set [4] (LPS-stimulated, (S)-10 at 5 μM and 10 μM), the “Effect on LPS-increased NO level” value is “no effect was observed”. Also, the “Effect on NO level” value in data set [4] (basal conditions) is recorded as “did not induce any change in NO level”. Moreover, in data set [5] (LPS-stimulated, 0.5 to 10 μM), the “Effect on LPS-evoked IL-1β production” value is “effectively decrease LPS-evoked cytokine production”. Moreover, the “Block by WRW4 of effect on IL-1β” value in data set [5] (setting [9]) is listed as “able to block the effect”. Further, the “Effect on IL-1β production” value in [5] (setting [10]) is “did not induce any change”. The “Effect on LPS-evoked TNF-α production” value in data set [6] (LPS-stimulated, 0.5 to 10 μM) is “effectively decrease LPS-evoked cytokine production”. Besides, in data set [6] (setting [9]), the “Block by WRW4 of effect on TNF-α” value is given as “able to block the effect”. Further, in data set [6] (setting [10]), the “Effect on TNF-α production” value is “did not induce any change”. Moreover, the efflux ratio at 2 h, 100 μM in [7] was below 3. Moreover, the PappAB in the data set with hCMEC/D3 cells (apical-to-basolateral transport) was 14552.1 ×10⁻⁶ cm/s. The same molecule yielded a PappBA in the data set with hCMEC/D3 cells (basolateral-to-apical transport) of 37598.1 ×10⁻⁶ cm/s.
